Source: patent publication US8338565B2, “Macrocyclic compounds for inhibition of tumor necrosis factor alpha” (Ensemble Therapeutics Corporation, priority 2008, dated 2012)
Values joined by “and” are separate entries in the source; they are usually repeats but may differ in a detail not shown here. Identical values can stand only once. Numbered stars: 1 amine (or outer) side, 2 acyl side, 3 side chain; on linkers, the order of the positions; unused ones are H or OH. Bridge positions count the residues as written; N and C are the ends. Square brackets hold non-standard residues; d marks the D form. Peptide text beside a SMILES is read from it. Tartaroyl(2R,3R-(OAc)2) = CC(=O)O[C@@H](C(=O)[*:1])[C@@H](OC(C)=O)C(=O)[*:2]; Phe(2,4-Cl2) = N[C@@H](Cc1ccc(Cl)cc1Cl)C(=O)O; Bip = N[C@@H](Cc1ccc(-c2ccccc2)cc1)C(=O)O; dPhe(4-NH2) = Nc1ccc(C[C@@H](N)C(=O)O)cc1; dPhe(4-Br) = N[C@H](Cc1ccc(Br)cc1)C(=O)O; Phe(4-NH2) = Nc1ccc(C[C@H](N)C(=O)O)cc1; d(hPhe) = N[C@H](CCc1ccccc1)C(=O)O; hPhe = N[C@@H](CCc1ccccc1)C(=O)O; 2Thi = N[C@@H](Cc1cccs1)C(=O)O; Cha = N[C@@H](CC1CCCCC1)C(=O)O; d2Thi = N[C@H](Cc1cccs1)C(=O)O; Suc = O=C(CCC(=O)[*:2])[*:1]; Nphe = O=C(O)CNCc1ccccc1; Ava = NCCCCC(=O)O

Target: T1, TNFα / TNFα receptor (TNFα R1/Fc) (Homo sapiens, UniProt P01375)
T1 construct: purchased R&D Systems
Test: Inhibition of binding of TNFα to the TNFα receptor (plate ELISA competition)
Details: Table 2; read-out: Activity (IC50, inhibition of TNFα binding to TNFα R1/Fc)
Summary of the method: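 Plates were coated with TNFα at 15 nM. Test compound and 8.33 nM receptor-Fc (PBST, 2% DMSO) were first mixed in solution for 30 min at room temperature, then transferred to the plates for another 30 min. Competition was read by absorbance at 450 nm after HRP anti-human IgG Fc detection with TMB.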

T1 sequence (P01375 77-233 limits assumed, species assumed): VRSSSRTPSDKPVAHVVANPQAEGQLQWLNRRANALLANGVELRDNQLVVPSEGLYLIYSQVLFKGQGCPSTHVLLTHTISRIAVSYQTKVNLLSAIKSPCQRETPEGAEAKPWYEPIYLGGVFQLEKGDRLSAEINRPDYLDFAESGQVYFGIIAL

Compound | IC50
O=C(O)CCCCNC(=O)[C@@H]1Cc2ccc(cc2)NC(=O)CCC(=O)N[C@H](Cc2cccs2)C(=O)N[C@@H](Cc2ccc(-c3ccccc3)cc2)C(=O)N[C@H](CCc2ccccc2)C(=O)N1 [Compound 450] ([d2Thi][Bip][d(hPhe)][Phe(4-NH2)][Ava]-OH; linker N-4 via Suc) | 30 to 100 µM
C[C@H](NC(=O)[C@@H]1Cc2ccc(cc2)OCC(=O)N[C@@H](Cc2cccs2)C(=O)N[C@H](Cc2ccc(-c3ccccc3)cc2)C(=O)N[C@@H](CCc2ccccc2)C(=O)N1)C(=O)O [Compound 473] | < 10 µM
O=C(O)[C@@H]1Cc2ccc(cc2)NC(=O)[C@H](O)[C@@H](O)C(=O)N[C@H](Cc2ccccc2Cl)C(=O)N[C@@H](Cc2ccc(-c3ccccc3)cc2)C(=O)N[C@H](Cc2ccccc2)C(=O)N1 [Compound 315] | 10 to 30 µM
CC(=O)O[C@H]1C(=O)Nc2ccc(cc2)C[C@@H](C(=O)O)NC(=O)[C@@H](CCc2ccccc2)NC(=O)[C@H](Cc2ccc(-c3ccccc3)cc2)NC(=O)[C@@H](Cc2ccccc2)NC(=O)[C@@H]1OC(C)=O [Compound 235] ([dF][Bip][d(hPhe)][Phe(4-NH2)]-OH; linker N-4 via Tartaroyl(2R,3R-(OAc)2)) | 10 to 30 µM
O=C(O)CCNC(=O)[C@@H]1Cc2ccc(cc2)OCC(=O)N[C@@H](Cc2ccc(-c3ccncc3)cc2)C(=O)N[C@H](Cc2ccc(-c3ccccc3)cc2)C(=O)N[C@@H](CCc2ccccc2)C(=O)N1 [Compound 579] | < 10 µM
O=C1CCC(=O)N[C@H](Cc2cccs2)C(=O)N[C@@H](Cc2ccc(-c3ccccc3)cc2)C(=O)N[C@H](CCc2ccccc2)C(=O)N[C@H](C(=O)N[C@H](Cc2ccccc2)C(=O)O)Cc2ccc(cc2)N1 [Compound 444] ([d2Thi][Bip][d(hPhe)][Phe(4-NH2)][dF]-OH; linker N-4 via Suc) | 30 to 100 µM
O=C1CCC(=O)N[C@@H](CC2CCCCC2)C(=O)N[C@@H](Cc2ccc(-c3ccccc3)cc2)C(=O)N[C@H](CCc2ccccc2)C(=O)N[C@H](C(=O)O)Cc2ccc(cc2)N1 [Compound 191] ([Cha][Bip][d(hPhe)][Phe(4-NH2)]-OH; linker N-4 via Suc) | < 10 µM
O=C1COc2ccc(cc2)C[C@@H](C(=O)O)NC(=O)[C@H](CCc2ccccc2)NC(=O)[C@@H](Cc2ccc(-c3ccccc3)cc2)NC(=O)[C@H](Cc2ccco2)N1 [Compound 687] | < 10 µM
CC(=O)O[C@H]1C(=O)Nc2ccc(cc2)C[C@H](C(=O)N[C@@H](Cc2ccccc2)C(=O)O)NC(=O)[C@H](CCc2ccccc2)NC(=O)[C@@H](Cc2ccc(Br)cc2)NC(=O)[C@H](Cc2cccs2)NC(=O)[C@@H]1OC(C)=O [Compound 415] ([2Thi][dPhe(4-Br)][hPhe][dPhe(4-NH2)]F-OH; linker N-4 via Tartaroyl(2R,3R-(OAc)2)) | > 100 µM
N[C@H]1CC(=O)Nc2ccc(cc2)C[C@@H](C(=O)O)NC(=O)[C@@H](Cc2ccccc2)NC(=O)[C@H](Cc2ccc(-c3ccccc3)cc2)NC(=O)[C@@H](Cc2cccs2)NC1=O [Compound 371] (H-D[d2Thi][Bip][dF][Phe(4-NH2)]-OH; lactam 1-5) | > 100 µM
O=C1COc2ccc(cc2)C[C@@H](C(=O)O)NC(=O)[C@H](CCc2ccccc2)NC(=O)[C@@H](Cc2ccc(-c3ccncc3)cc2)NC(=O)[C@H](Cc2ccncc2)N1 [Compound 666] | 10 to 30 µM
O=C1COc2ccc(cc2)C[C@@H](C(=O)O)NC(=O)[C@H](c2ccccc2)NC(=O)[C@@H](Cc2ccc(-c3ccccc3)cc2)NC(=O)[C@H](Cc2cccs2)N1 [Compound 368] | > 100 µM
O=C(O)C[C@H](NC(=O)[C@@H]1Cc2ccc(cc2)NC(=O)CCC(=O)N[C@H](Cc2cccs2)C(=O)N[C@@H](Cc2ccc(-c3ccccc3)cc2)C(=O)N[C@H](Cc2ccccc2)C(=O)N1)C(=O)O [Compound 27] ([d2Thi][Bip][dF][Phe(4-NH2)]D-OH; linker N-4 via Suc) | > 100 µM
N=C(N)NCCC[C@H]1NC(=O)[C@H](Cc2ccc(-c3ccccc3)cc2)NC(=O)[C@@H](Cc2cccs2)NC(=O)CCC(=O)Nc2ccc(cc2)C[C@@H](C(=O)O)NC1=O [Compound 73] ([d2Thi][Bip][dR][Phe(4-NH2)]-OH; linker N-4 via Suc) | > 100 µM
O=C(O)CCCCNC(=O)[C@@H]1Cc2ccc(cc2)NC(=O)CCC(=O)N[C@H](Cc2ccccc2)C(=O)N[C@@H](Cc2ccc(-c3ccccc3)cc2)C(=O)N[C@H](CCc2ccccc2)C(=O)N1 [Compound 461] ([dF][Bip][d(hPhe)][Phe(4-NH2)][Ava]-OH; linker N-4 via Suc) | > 100 µM
O=C(O)[C@@H]1Cc2ccc(cc2)NC(=O)[C@H](O)[C@@H](O)C(=O)N[C@H](Cc2cccnc2)C(=O)N[C@@H](Cc2ccc(-c3ccccc3)cc2)C(=O)N[C@H](Cc2ccccc2)C(=O)N1 [Compound 311] | 30 to 100 µM
O=C1COc2ccc(cc2)C[C@@H](C(=O)O)NC(=O)[C@H](CCc2ccccc2)NC(=O)[C@@H](Cc2ccc(-c3ccccc3)cc2)NC(=O)[C@H](Cc2ccccn2)N1 [Compound 660] | < 10 µM
O=C(O)CCNC(=O)[C@@H]1Cc2ccc(cc2)OCC(=O)N[C@@H](Cc2cccs2)C(=O)N[C@H](Cc2ccc(-c3ccccc3)cc2)C(=O)N[C@@H](Cc2ccc(O)cc2)C(=O)N1 [Compound 564] | < 10 µM
CC(=O)O[C@H]1C(=O)Nc2ccc(cc2)C[C@H](C(=O)N[C@@H](Cc2ccccc2)C(=O)O)NC(=O)[C@H](Cc2ccccc2)NC(=O)[C@@H](Cc2ccc(Br)cc2)NC(=O)[C@H](Cc2cccs2)NC(=O)[C@@H]1OC(C)=O [Compound 417] ([2Thi][dPhe(4-Br)]F[dPhe(4-NH2)]F-OH; linker N-4 via Tartaroyl(2R,3R-(OAc)2)) | > 100 µM
O=C1Nc2ccc(cc2)C[C@H](C(=O)N[C@@H](Cc2ccccc2)C(=O)O)NC(=O)[C@@H](Cc2ccccc2)NC(=O)[C@H](Cc2ccc(-c3ccccc3)cc2)NC(=O)[C@@H](Cc2cccs2)NC(=O)C2CC12 (stereo partly drawn) [Compound 708] | < 10 µM
O=C1CCC(=O)N[C@H](CCc2ccccc2)C(=O)NC(c2ccc(Br)cc2)C(=O)N[C@H](Cc2ccccc2)C(=O)N[C@H](C(=O)O)Cc2ccc(cc2)N1 (stereo partly drawn) [Compound 183] | 10 to 30 µM
O=C(O)[C@@H]1Cc2ccc(cc2)NC(=O)[C@@H]2CCCC[C@H]2C(=O)N[C@H](Cc2cccs2)C(=O)N[C@@H](Cc2ccc(-c3ccccc3)cc2)C(=O)N[C@H](Cc2ccccc2)C(=O)N1 [Compound 9] | 10 to 30 µM

The remaining lines, values ahead:

IC50 | Compound
> 100 µM | O=C(O)[C@@H]1Cc2ccc(cc2)NC(=O)[C@H](O)[C@@H](O)C(=O)N[C@@H](Cc2cccs2)C(=O)N[C@H](Cc2ccc(-c3ccccc3)cc2)C(=O)N[C@@H](Cc2ccccc2)C(=O)N1 [Compound 271]
30 to 100 µM | O=C1COc2ccc(cc2)C[C@@H](C(=O)O)NC(=O)[C@H](Cc2ccc(-c3ccccc3)cc2)NC(=O)[C@@H](Cc2ccc(-c3ccccc3)cc2)NC(=O)[C@H](Cc2cccs2)N1 [Compound 726]
> 100 µM | O=C1CCC(=O)N[C@H](Cc2cccs2)C(=O)N(Cc2ccccc2)CC(=O)N[C@H](Cc2ccccc2)C(=O)N[C@H](C(=O)O)Cc2ccc(cc2)N1 [Compound 101] ([d2Thi][Nphe][dF][Phe(4-NH2)]-OH; linker N-4 via Suc)
> 100 µM | CC(=O)NCCCC[C@@H]1NC(=O)COc2ccc(cc2)C[C@@H](C(=O)O)NC(=O)[C@H](Cc2ccccc2)NC(=O)[C@H](Cc2ccc(-c3ccccc3)cc2)NC1=O [Compound 490]
10 to 30 µM | N#Cc1ccccc1C[C@H]1NC(=O)[C@H](O)[C@@H](O)C(=O)Nc2ccc(cc2)C[C@@H](C(=O)O)NC(=O)[C@@H](Cc2ccccc2)NC(=O)[C@H](Cc2ccc(-c3ccccc3)cc2)NC1=O [Compound 314]
30 to 100 µM | CC(=O)O[C@H]1C(=O)Nc2ccc(cc2)C[C@H](C(=O)O)NC(=O)[C@@H](Cc2ccccc2)NC(=O)[C@H](Cc2ccc(Cl)cc2Cl)NC(=O)[C@@H](Cc2ccccc2)NC(=O)[C@@H]1OC(C)=O [Compound 233] ([dF][Phe(2,4-Cl2)][dF][dPhe(4-NH2)]-OH; linker N-4 via Tartaroyl(2R,3R-(OAc)2))
10 to 30 µM and > 100 µM | O=C(O)CCCNC(=O)[C@H]1Cc2ccc(cc2)OCC(=O)N[C@@H](Cc2ccncc2)C(=O)N[C@H](Cc2ccc(-c3ccccc3)cc2)C(=O)N[C@@H](CCc2ccccc2)C(=O)N1 [compound 715]
> 100 µM | O=C(O)CC[C@H]1NC(=O)[C@H](Cc2ccc(-c3ccccc3)cc2)NC(=O)[C@@H](Cc2cccs2)NC(=O)CCC(=O)Nc2ccc(cc2)C[C@@H](C(=O)O)NC1=O [Compound 69] ([d2Thi][Bip][dE][Phe(4-NH2)]-OH; linker N-4 via Suc)
10 to 30 µM | COc1cccc(C[C@H]2NC(=O)[C@H](O)[C@@H](O)C(=O)Nc3ccc(cc3)C[C@@H](C(=O)O)NC(=O)[C@@H](Cc3ccccc3)NC(=O)[C@H](Cc3ccc(-c4ccccc4)cc3)NC2=O)c1 [Compound 317]
> 100 µM | C[C@H](NC(=O)[C@@H]1Cc2ccc(cc2)NC(=O)CCC(=O)N[C@H](Cc2ccccc2)C(=O)N[C@@H](Cc2ccc(-c3ccccc3)cc2)C(=O)N[C@H](CCc2ccccc2)C(=O)N1)C(=O)O [Compound 458] ([dF][Bip][d(hPhe)][Phe(4-NH2)]A-OH; linker N-4 via Suc)
> 100 µM | O=C(O)[C@@H]1Cc2ccc(cc2)NC(=O)[C@@H](O)[C@H](O)C(=O)N[C@H](Cc2cccs2)C(=O)N[C@@H](Cc2ccc(-c3ccccc3)cc2)C(=O)N[C@H](Cc2ccccc2)C(=O)N1 [Compound 185]
< 10 µM | O=C(O)CCCNC(=O)[C@@H]1Cc2ccc(cc2)OCC(=O)N[C@@H](Cc2c[nH]c3ccccc23)C(=O)N[C@H](Cc2ccc(-c3ccccc3)cc2)C(=O)N[C@@H](Cc2ccccc2F)C(=O)N1 [Compound 718]
30 to 100 µM | O=C1CCC(=O)N[C@H](Cc2cccs2)C(=O)N[C@@H](Cc2ccc(-c3ccccc3)cc2)C(=O)N[C@H](Cc2ccccc2)C(=O)N[C@H](C(=O)N[C@@H](CO)C(=O)O)Cc2ccc(cc2)N1 [Compound 22] ([d2Thi][Bip][dF][Phe(4-NH2)]S-OH; linker N-4 via Suc)
10 to 30 µM | O=C1CCC(=O)N[C@H](CCc2ccccc2)C(=O)N[C@@H](Cc2ccc(-c3cccc(F)c3)cc2)C(=O)N[C@H](Cc2ccccc2)C(=O)N[C@H](C(=O)O)Cc2ccc(cc2)N1 [Compound 181]
